# Source: patent US8969413B2
# Columns and labels:
# Sprague-Dawley rats = assay: μPET imaging of 11C-raclopride binding after cocaine
# cortical neurons = assay: [3H]GABA uptake in cultured cortical neurons; format: cell-based; conditions: Mus musculus, Cortical neurone; read-out: neuron uptake IC50
# Description: Cortical neurons were cultured essentially as previously described by removing the neopallium of 15-day old NMRI embryos by dissection followed by mild trypsination. Hertz E, Yu A C H, Hertz L, Juurlink B H J and Schousboe A. Preparation of Primary Cultures of Mouse Cortical Neurons, in A Dissection and Tissue Culture Manual of the Nervous System (Shahar A, de Vellis J, Vernadakis A and Haber B eds) pp 183-186, Alan R. Liss, Inc., New York, 198. The neurons were cultured in 10% fetal calf serum and, after 48 h, cytosine arabinoside was added to a final concentration of 20 μM to prevent glial proliferation. Four cultures of stably transfected Human Embryonic Kidney (HEK)-293 cells expressing mGAT1-4 were prepared by the method previously reported. […] J Pharmacol Exp Ther. 2002, 302, 636-644 The stable cell lines are under the selection pressure of blasticidin-S at 5 μg/mL. Determinations of the IC50 values were conducted as described earlier. […] Radioactivity was measured using Microscint™ 20 scintillation fluid (PerkinElmer) and a Packard TopCount microplate scintillation counter.
# GABAB receptor [1] = target: T1, GABAB receptor (Rattus norvegicus, UniProt Q9Z0U4); assay: biochemical
# hGAT-1 = target: T2, hGAT-1 (Homo sapiens, UniProt P30531); assay: [3H]GABA uptake at human GABA transporters, tsA201 cells; format: cell-based
# T2 construct: expressed in transfected cells; host or cells: tsA201 cells, transient (PolyFect)
# Description: (§1) tsA201 cells were cultured in GlutaMAX-I DMEM supplemented with 10% fetal bovine serum, penicillin (100 U/ml), and streptomycin (100 μg/ml) at 37° C. in a humidified atmosphere of 95% air and 5% CO2. […] J. Biol. Chem. 2007, 282, 19331-19341. […] Quantification was performed by using Microscint™ 20 scintillation fluid (PerkinElmer) and a Packard TopCount microplate scintillation counter.
# hBGT-1 = target: T3, hBGT-1 (Homo sapiens, UniProt P48065); assay: as above; format: cell-based
# T3 construct: expressed in transfected cells; host or cells: tsA201 cells, transient (PolyFect)
# Description: as §1
# hGAT-2 = target: T4, hGAT-2 (Homo sapiens, UniProt Q9NSD5); assay: as above; format: cell-based
# T4 construct: expressed in transfected cells; host or cells: tsA201 cells, transient (PolyFect)
# Description: as §1
# hGAT-3 = target: T5, hGAT-3 (Homo sapiens, UniProt P48066); assay: as above; format: cell-based
# T5 construct: expressed in transfected cells; host or cells: tsA201 cells, transient (PolyFect)
# Description: as §1
# Sprague Dawley rats = assay: cocaine induced dopamine surge in nucleus accumbens (FIG. 3); conditions: 1 mg/kg single dose
# Mice [2] = assay: subcutaneous bicuculline (scBIC); format: in vivo; conditions: Single IP drug dose, 2.7 mg/kg BIC; from 10-200 mg/kg; inconclusive?
# Description: (§2) Bicuculline (Bic) and Picrotoxin (Pic) are chemoconvulsants that cause clonic seizures in a manner similar to Metrazol (see scMET test). […] Therefore, as much as possible it is useful to differentiate novel AEDs pharmacologically. […]. At a previously determined time of peak effect (TPE), the animals are given a subcutaneous injection of either of the noted chemo-convulsants using the convulsive dose (CD97—a dose of 2.7 or 2.5 mg/kg, for Bic and Pic, respectively). The experimental animals are placed in isolation cages to minimize possible crowding stresses (Swinyard et al., 1961) and observed for the next 30 minutes (for Bic) or 45 minutes (for Pic) for the presence or absence of a seizure. An episode of clonic spasms, approximately 3-5 seconds, of the fore and/or hindlimbs, jaws, or vibrissae is used as the experimental endpoint.
# Mice [3] = assay: subcutaneous picrotoxin (scPIC); format: in vivo
# Description: as §2
# GABAB receptor [4] = target: T1, GABAB receptor; conditions: 100 μM, rat brain cortical homogenate
# Mice [5] = assay: corneal kindling; format: in vivo
# Description: Mice are kindled electrically with 3 sec stimulation, 8 mA, 60 Hz, and corneal electrodes to a criterion of 10 consecutive Stage 5 seizures (facial clonus and head nodding progressing to forelimb clonus, and finally rearing and falling accompanied by a generalized clonic seizure as described by Racine). Stage 5 is generally reached after twice daily stimulation for 8 days. With continued stimulation once a day, animals usually progress to a reproducible Stage 5 after 10-14 additional days. At least 72 hours after the mice have been kindled, the test substance is administered either i.p. or p.o. and, at the previously determined TPE, each animal is given the electrical stimulus indicated above. Following stimulation, the animals are observed for the presence or absence of the rearing and falling criteria of a Stage 5 seizure. Treated animals not displaying a Stage 3, 4, or 5 seizure are considered protected. The dose of the test substance is varied between the limits of 0 and 100% efficacy, and the ED50 (mean effective dose) and 95% confidence intervals calculated by probit analysis. Mean values and the S.E.M. are calculated for the length of clonus and seizure duration and p values are determined by the Student's t-test
# T1 sequence (Q9Z0U4 17-960 limits assumed): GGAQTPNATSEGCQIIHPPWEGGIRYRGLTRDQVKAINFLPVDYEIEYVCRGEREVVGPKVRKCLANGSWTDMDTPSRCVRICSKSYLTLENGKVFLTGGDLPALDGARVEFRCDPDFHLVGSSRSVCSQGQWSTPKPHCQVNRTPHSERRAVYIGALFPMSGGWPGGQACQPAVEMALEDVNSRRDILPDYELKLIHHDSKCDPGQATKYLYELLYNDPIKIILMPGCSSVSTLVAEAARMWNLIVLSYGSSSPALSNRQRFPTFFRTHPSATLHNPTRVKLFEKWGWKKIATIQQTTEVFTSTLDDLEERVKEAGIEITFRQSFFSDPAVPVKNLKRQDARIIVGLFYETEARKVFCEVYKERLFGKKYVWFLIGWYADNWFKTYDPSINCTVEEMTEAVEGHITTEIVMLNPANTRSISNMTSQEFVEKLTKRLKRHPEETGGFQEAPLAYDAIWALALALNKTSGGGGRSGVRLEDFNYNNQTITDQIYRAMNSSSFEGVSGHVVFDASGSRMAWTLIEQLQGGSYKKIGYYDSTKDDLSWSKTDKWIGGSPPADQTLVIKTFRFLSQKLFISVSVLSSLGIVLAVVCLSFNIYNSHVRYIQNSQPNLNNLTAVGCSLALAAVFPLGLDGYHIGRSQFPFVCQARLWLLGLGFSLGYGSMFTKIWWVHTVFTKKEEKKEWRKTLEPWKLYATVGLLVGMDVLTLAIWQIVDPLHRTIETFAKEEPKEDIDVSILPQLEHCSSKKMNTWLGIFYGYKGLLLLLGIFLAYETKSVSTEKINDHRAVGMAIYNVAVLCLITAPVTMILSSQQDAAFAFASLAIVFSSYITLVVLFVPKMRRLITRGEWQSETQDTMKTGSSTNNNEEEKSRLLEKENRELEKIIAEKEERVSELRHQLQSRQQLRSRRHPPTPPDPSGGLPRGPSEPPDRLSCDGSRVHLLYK
# T1 sequence (O88871 41-940 partner): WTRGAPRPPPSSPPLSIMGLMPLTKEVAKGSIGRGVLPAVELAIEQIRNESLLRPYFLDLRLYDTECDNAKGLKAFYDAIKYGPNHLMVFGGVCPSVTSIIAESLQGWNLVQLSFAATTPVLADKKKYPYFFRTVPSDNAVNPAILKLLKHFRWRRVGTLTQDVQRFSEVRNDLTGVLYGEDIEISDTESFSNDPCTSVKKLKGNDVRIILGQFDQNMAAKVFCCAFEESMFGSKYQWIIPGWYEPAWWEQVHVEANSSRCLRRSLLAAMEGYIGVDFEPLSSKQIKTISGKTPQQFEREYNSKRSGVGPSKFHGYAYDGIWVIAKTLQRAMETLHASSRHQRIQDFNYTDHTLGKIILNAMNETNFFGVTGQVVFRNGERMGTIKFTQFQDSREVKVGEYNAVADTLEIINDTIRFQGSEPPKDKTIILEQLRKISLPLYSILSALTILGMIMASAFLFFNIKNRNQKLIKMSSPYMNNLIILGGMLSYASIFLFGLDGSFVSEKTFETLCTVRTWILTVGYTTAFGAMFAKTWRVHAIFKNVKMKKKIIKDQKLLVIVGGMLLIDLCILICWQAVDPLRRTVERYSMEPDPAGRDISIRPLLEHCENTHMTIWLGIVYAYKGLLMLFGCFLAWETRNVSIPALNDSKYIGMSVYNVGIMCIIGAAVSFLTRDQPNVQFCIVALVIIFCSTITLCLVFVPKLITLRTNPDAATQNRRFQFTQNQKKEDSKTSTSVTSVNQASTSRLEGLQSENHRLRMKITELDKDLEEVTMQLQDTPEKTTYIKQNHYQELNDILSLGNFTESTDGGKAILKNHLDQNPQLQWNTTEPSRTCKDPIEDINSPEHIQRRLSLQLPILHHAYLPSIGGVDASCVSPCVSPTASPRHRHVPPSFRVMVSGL
# T4 sequence (Q9NSD5 whole entry): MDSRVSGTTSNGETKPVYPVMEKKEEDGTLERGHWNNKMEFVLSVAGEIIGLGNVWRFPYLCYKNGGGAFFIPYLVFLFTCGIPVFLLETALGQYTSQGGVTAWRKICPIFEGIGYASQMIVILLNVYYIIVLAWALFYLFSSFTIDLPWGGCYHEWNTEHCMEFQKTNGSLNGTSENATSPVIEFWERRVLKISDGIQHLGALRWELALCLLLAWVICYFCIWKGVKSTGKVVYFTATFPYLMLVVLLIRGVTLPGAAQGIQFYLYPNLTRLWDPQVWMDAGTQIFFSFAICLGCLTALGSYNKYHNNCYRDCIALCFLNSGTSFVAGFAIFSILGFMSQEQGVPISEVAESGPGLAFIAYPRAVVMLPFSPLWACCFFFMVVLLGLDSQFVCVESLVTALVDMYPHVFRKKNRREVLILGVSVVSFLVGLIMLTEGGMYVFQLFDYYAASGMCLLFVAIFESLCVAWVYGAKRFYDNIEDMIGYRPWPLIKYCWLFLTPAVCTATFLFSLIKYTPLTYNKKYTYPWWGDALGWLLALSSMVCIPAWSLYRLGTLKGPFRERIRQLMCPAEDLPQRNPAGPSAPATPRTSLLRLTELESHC
# T3 sequence (P48065 whole entry): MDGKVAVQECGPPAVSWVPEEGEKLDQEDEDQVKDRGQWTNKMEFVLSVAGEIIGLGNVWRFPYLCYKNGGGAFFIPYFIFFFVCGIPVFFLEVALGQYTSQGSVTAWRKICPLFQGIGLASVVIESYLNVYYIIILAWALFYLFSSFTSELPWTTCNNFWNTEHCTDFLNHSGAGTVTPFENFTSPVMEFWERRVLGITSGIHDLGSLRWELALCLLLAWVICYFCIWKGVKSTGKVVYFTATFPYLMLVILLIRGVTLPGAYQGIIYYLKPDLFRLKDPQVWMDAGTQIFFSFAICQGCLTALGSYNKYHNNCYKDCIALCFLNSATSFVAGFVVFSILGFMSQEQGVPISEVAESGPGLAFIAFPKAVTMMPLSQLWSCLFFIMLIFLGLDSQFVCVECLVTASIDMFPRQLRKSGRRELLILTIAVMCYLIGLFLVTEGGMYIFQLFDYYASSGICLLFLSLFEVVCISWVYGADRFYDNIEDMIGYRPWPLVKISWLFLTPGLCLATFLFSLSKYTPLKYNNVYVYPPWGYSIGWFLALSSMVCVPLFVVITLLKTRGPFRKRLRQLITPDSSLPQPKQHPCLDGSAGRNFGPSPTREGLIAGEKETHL
# T2 sequence (P30531 whole entry): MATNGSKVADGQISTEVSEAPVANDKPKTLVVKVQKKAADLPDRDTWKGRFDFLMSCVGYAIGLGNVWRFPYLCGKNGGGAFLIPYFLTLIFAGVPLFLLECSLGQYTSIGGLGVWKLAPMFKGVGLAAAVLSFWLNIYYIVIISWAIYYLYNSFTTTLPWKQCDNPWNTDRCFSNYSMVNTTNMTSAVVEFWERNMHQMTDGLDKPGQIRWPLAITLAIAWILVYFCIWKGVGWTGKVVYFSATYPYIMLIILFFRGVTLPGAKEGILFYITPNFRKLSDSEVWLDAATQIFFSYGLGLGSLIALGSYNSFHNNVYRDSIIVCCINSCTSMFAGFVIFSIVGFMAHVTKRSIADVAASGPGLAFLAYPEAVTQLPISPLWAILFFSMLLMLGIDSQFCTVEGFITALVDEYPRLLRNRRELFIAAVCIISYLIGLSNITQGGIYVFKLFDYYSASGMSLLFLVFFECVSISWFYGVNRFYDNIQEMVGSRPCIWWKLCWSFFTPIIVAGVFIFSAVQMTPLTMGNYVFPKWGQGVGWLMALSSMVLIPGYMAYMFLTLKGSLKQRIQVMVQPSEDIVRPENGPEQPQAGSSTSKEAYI
# T5 sequence (P48066 whole entry): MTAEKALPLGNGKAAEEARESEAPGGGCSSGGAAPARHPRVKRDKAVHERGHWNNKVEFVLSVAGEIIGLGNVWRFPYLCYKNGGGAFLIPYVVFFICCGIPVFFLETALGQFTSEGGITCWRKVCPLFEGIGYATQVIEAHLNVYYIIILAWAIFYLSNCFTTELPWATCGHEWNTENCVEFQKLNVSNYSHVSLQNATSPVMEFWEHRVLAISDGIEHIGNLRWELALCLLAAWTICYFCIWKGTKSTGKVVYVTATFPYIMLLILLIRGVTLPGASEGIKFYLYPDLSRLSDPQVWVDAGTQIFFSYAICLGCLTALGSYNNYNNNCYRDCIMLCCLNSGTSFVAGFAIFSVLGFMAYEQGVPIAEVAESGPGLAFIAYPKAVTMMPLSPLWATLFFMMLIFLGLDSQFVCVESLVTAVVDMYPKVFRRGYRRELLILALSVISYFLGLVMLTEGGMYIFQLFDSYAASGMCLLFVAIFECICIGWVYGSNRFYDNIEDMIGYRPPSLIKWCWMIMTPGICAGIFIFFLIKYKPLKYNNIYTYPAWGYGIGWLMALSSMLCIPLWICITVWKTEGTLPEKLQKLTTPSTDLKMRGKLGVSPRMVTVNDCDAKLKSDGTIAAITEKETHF
compound,measurement,setting,value
N[C@H]1C[C@@H](C(=O)O)CC1=C(F)F [CPP-115],"effective dose, times lower than the 300 mg/kg dose of vigabatrin",Sprague-Dawley rats; 0.5 mg/kg versus 300 mg/kg,600 times
same,effect on cocaine-induced increases in synaptic dopamine,"Sprague-Dawley rats; 0.5 mg/kg, 2.5 h before cocaine 5.0 mg/kg i.v.",complete blockade of cocaine-induced increases in synaptic dopamine
same,"dose blocking cocaine-induced dopamine increase and CPP, times lower than vigabatrin","Sprague-Dawley rats; μPET and CPP, summary statement",100 times
same,IC50,cortical neurons,> 1000 µM
same,inhibition of radioligand binding at GABAA receptors,"GABAA receptor; 100 μM, rat brain cortical homogenate",no inhibition of binding was observed
same,IC50,"GABAA receptor; read-out: [3H]muscimol competition (GABAA receptor) IC50, 5 nM [3H]muscimol, 0 °C, 60 min",> 100 µM
same,IC50,GABAB receptor [1],> 100 µM
same,IC50,hGAT-1,> 1000 µM
same,IC50,hBGT-1,> 1000 µM
same,IC50,hGAT-2,> 1000 µM
same,IC50,hGAT-3,> 1000 µM
same,dopamine levels after cocaine challenge,Sprague Dawley rats,less than 300 times baseline
same,scBIC protected,Mice [2],About 50% protected
same,ED50,"Mice [3]; Mus musculus, ip, read-out: scPIC ED50",60.7 mg/kg
same,scPIC TPE,"Mice [3]; Single IP drug dose, 2.5 mg/kg PIC",TPE 2 hours
same,inhibition of radioligand binding at GABAB receptors,GABAB receptor [4],no inhibition of binding was observed
same,Corn. Kind. TPE,"Mice [5]; Single IP drug dose, primed @ 8 mA, 60 Hz, 3 secs, for 8 days",TPE 4 hours
same,ED50,"Mice [5]; ip, 192 h, read-out: Corn. Kind. ED50",20.1 mg/kg
